This note sets out measurements from patent US20040166137A1, “Hetero-substituted benzimidazole compounds and antiviral uses thereof” (priority 2002, published 2004).

Data set [1] deals with RSV. In words: Antiviral assay (PRA): inhibition of RSV syncytial plaque formation on Hep2 cell monolayers. The format is cell-based. Particulars: human respiratory syncytial virus, read-out: PRA (IC50). The procedure:
The lower the observed level of fusion, the greater the antiviral activity of the compound was determined to be. Uninfected confluent monolayers (seeded at 2.2×10^4 cells/well) of Hep2 cells were grown in microtiter wells (96-well plates) in EMEM (Eagle Minimum Essential Medium w/o L-glutamine [Bio Whittaker Cat. […] Bio Whittaker Cat. No. 14-[…]), antibiotics (penicillin/streptomycin; Bio Whittaker Cat. […] The plates were incubated for 24 hours and used for antiviral assays and cytotoxicity assays. To prepare Hep2 cells for addition to uninfected cells, cultures of […] infected Hep2 cells were washed with DPBS (Dulbecco's Phosphate Buffered Saline w/o calcium or magnesium; Bio Whittaker Cat. […] Gibco Life Technologies Cat. No. 15040-017). The cells were spun for 10 minutes and resuspended in 3% FBS. Cell counts were performed using a hemacytometer. Persistent cells were added to the uninfected Hep2 cells. The antiviral assay was conducted by first removing all medium from the wells containing uninfected Hep2 cells, adding 100 μl complete EMEM, then adding hetero-substituted benzimidazole compounds (eight 3-fold dilutions with 20 μM concentration as the highest final concentration) in 50 μl complete EMEM. Approximately 50 […] plaque forming units (PFU) of RSV in 50 μl was added per well and the plates were incubated in a CO2 incubator at 37° C. for 48 hours. Each plate contained uninfected control wells and infected untreated control wells for calculation of % inhibition (EC50) for each concentration. After incubation, cells in control wells were checked for fusion centers, medium was removed from the wells followed by addition to each well of either Crystal Violet stain or XTT. With respect to Crystal Violet, approximately 50μl 0.25% Crystal Violet stain in methanol was added to each well. The wells were rinsed immediately, to remove excess stain, and were allowed to dry. The number of syncytia per well were then counted, using a dissecting microscope. For antiviral assays at 48 hours post infection, cells in control wells were checked for syncytial plaques. Medium was removed from the wells followed by addition of approximately 50 Al Crystal Violet stain (0.25% Crystal Violet, 0.25% Giemsa dissolved in 10% formaldehyde, 70% methanol, and 20% H2O). The wells were incubated at room temperature for 5 minutes, rinsed with H2O to remove excess stain, and allowed to dry. The number of syncytia per well were counted using a dissecting microscope. The 50% inhibitory concentration (EC50) for each compound was calculated from the dose response curve. The compounds listed in Tables 1-2 have been screened for inhibitory activity against RSV.

The nature of data set [2]: XTT cytotoxicity assay on uninfected Hep2 cells. The following applies: human. The format is cell-based. The method, then: Uninfected confluent monolayers (seeded at 2.2×10^4 cells/well) of Hep2 cells were grown in microtiter wells (96-well plates) in EMEM (Eagle Minimum Essential Medium w/o L-glutamine [Bio Whittaker Cat. No. 12-125F] with 3% fetal bovine serum (FBS; which had been heat inactivated for 30 minutes at 56° C.; Bio Whittaker Cat. No. 14-501F), antibiotics (penicillin/streptomycin; Bio Whittaker Cat. No. 17-602E) added at 1%, and glutamine added at 1% (complete EMEM). The plates were incubated for 24 hours and used for antiviral assays and cytotoxicity assays.
Cytotoxicity assays were conducted by first removing all medium from the well containing uninfected Hep2 cells, adding 100 μl complete EMEM, and then adding hetero-substituted benzimidazole compounds (eight 3-fold dilutions with 100 μM concentration as the highest final concentration). Complete EMEM (50 μl) was added to each well instead of virus and the plates were incubated in a CO2 incubator at 37° C. for 48 hours.
At 48 hours, the cytotoxicity assays were developed by adding to each well 50 μl of XTT (1 mg/ml in PBS) containing 0.01-0.02 mM of the electron coupling agent phenazine methosulfate (PMS). The plates were incubated for 2-4 hours at 37° C. and then read in a 96-well plate reader at 450 nm. Plotting the % average OD of treated wells compared to the cell control vs. compound concentration generated dose response curves. CC50 (50% inhibitory cytotoxic concentration) values for each compound were then calculated from these curves. […]

Where [3] appears, read: HEp-2, Table 1, RSV-infected Hep2 cells, 48 hours, syncytia counted.
Setting [4] is: HEp-2, Table 2, RSV-infected Hep2 cells, 48 hours, syncytia counted.

Like-named read-outs stand apart in the source and are kept apart here. Some results are limits rather than exact numbers.

Turning to `OCCN(CCO)CCNCc1nc2cccnc2n1Cc1nc2ccccc2[nH]1` [compound 1, 2-[(2-{[3-(1H-Benzoimidazol-2-ylmethyl)-3H-imidazo[4,5-b]pyridin-2-ylmethyl]-amino}-ethyl)-(2-hydroxy-ethyl)-amino]-ethanol], the IC50 in data set [1] (HEp-2, 48 h) amounted to 160 nM. In data set [2] (Table 1, uninfected Hep2 cells, 48 hours, read-out: XTT (CC50)), the CC50 at 48 h is at least 100 µM.

For the compound `c1ccc2[nH]c(Cn3c(CNCCN4CCOCC4)nc4cccnc43)nc2c1` [compound 2, [3-(1H-Benzoimidazol-2-ylmethyl)-3H-imidazo[4,5-b]pyridin-2-ylmethyl]-(2-morpholin-4-yl-ethyl)-amine], the IC50 in data set [1] (setting [3]) stood at 240 nM. The CC50 at 48 h in data set [2] was at least 100 µM. The like results for `COCCN(C)Cc1nc2cccnc2n1Cc1nc2ccccc2[nH]1` [compound 3, [3-(1H-Benzoimidazol-2-ylmethyl)-3H-imidazo[4,5-b]pyridin-2-ylmethyl]-(2-methoxy-ethyl)-methyl-amine] were, in that order, 150 nM and at least 100 µM. The like results for `c1ccc2[nH]c(Cn3c(CNCCCN4CCOCC4)nc4cccnc43)nc2c1` [compound 4, [3-(1H-Benzoimidazol-2-ylmethyl)-3H-imidazo[4,5-b]pyridin-2-ylmethyl]-(3-morpholin-4-yl-propyl)-amine] were, in that order, 190 nM and at least 100 µM. The like results for `CN1CCN(CCCNCc2nc3cccnc3n2Cc2nc3ccccc3[nH]2)CC1` [compound 5, [3-(1H-Benzoimidazol-2-ylmethyl)-3H-imidazo[4,5-b]pyridin-2-ylmethyl]-[3-(4-methyl-piperazin-1-yl)-propyl]-amine] were, in that order, 9 nM and at least 100 µM. With `OCCN(CCO)CCCNCc1nc2cccnc2n1Cc1nc2ccccc2[nH]1` [compound 6, 2-[(3-{[3-(1H-Benzoimidazol-2-ylmethyl)-3H-imidazo[4,5-b]pyridin-2-ylmethyl]-amino}-propyl)-(2-hydroxy-ethyl)-amino]-ethanol], in data set [1] (setting [3]), the IC50 is 190 nM. Moreover, the CC50 at 48 h in data set [2] was at least 100 µM.

With `c1ccc2[nH]c(Cn3c(CNC4CCCC4)nc4cccnc43)nc2c1` [compound 7, [3-(1H-Benzoimidazol-2-ylmethyl)-3H-imidazo[4,5-b]pyridin-2-ylmethyl]-cyclopentyl-amine], the IC50 in data set [1] (setting [3]) came out at 4 nM. In addition, the CC50 at 48 h in data set [2] is at least 100 µM.

Regarding `CC(C)N(Cc1ccccc1)Cc1nc2cccnc2n1Cc1nc2ccccc2[nH]1` [compound 8, [3-(1H-Benzoimidazol-2-ylmethyl)-3H-imidazo[4,5-b]pyridin-2-ylmethyl]-benzyl-isopropyl-amine], in data set [1] (setting [3]), the IC50 worked out at 5 nM. Besides, the CC50 at 48 h in data set [2] was at least 100 µM. Taken in the same sequence, the figures for `CC(C)N(C)Cc1nc2cccnc2n1Cc1nc2ccccc2[nH]1` [compound 9, [3-(1H-Benzoimidazol-2-ylmethyl)-3H-imidazo[4,5-b]pyridin-2-ylmethyl]-isopropyl-methyl-amine] were 3 nM and at least 100 µM. The like results for `CC(C)N(Cc1nc2cccnc2n1Cc1nc2ccccc2[nH]1)C(C)C` [compound 12, [3-(1H-Benzoimidazol-2-ylmethyl)-3H-imidazo[4,5-b]pyridin-2-ylmethyl]-diisopropyl-amine] were, in that order, 5 nM and at least 100 µM. Take `c1ccc2[nH]c(Cn3c(CN4CCOCC4)nc4cccnc43)nc2c1` [compound 13, 3-(1H-Benzoimidazol-2-ylmethyl)-2-morpholin-4-ylmethyl-3H-imidazo[4,5-b]pyridine]: the IC50 in data set [1] (setting [4]) came out at 1 nM. This compound returned a CC50 at 48 h in data set [2] of at least 100 µM. The like results for `FC(F)(F)c1ccc(N2CCN(Cc3nc4cccnc4n3Cc3nc4ccccc4[nH]3)CC2)cc1` [compound 14, 3-(1H-Benzoimidazol-2-ylmethyl)-2-[4-(4-trifluoromethyl-phenyl)-piperazin-1-ylmethyl]-3H-imidazo[4,5-b]pyridine] were, in that order, 5 nM and at least 100 µM. Consider `Oc1cc2c(cc1O)CN(Cc1nc3cccnc3n1Cc1nc3ccccc3[nH]1)CC2` [compound 15, 2-[3-(1H-Benzoimidazol-2-ylmethyl)-3H-imidazo[4,5-b]pyridin-2-ylmethyl]-1,2,3,4-tetrahydro-isoquinoline-6,7-diol], for which the IC50 in data set [1] (setting [4]) was found to be 13 nM. In addition, in data set [2], the CC50 at 48 h is at least 100 µM. Taken in the same sequence, the figures for `c1ccc2[nH]c(Cn3c(CN4CCNCC4)nc4cccnc43)nc2c1` [compound 16, 3-(1H-Benzoimidazol-2-ylmethyl)-2-piperazin-1-ylmethyl-3H-imidazo[4,5-b]pyridine] were 120 nM and at least 100 µM. Taken in the same sequence, the figures for `O=C(Cc1ccccc1)N1CCN(Cc2nc3cccnc3n2Cc2nc3ccccc3[nH]2)CC1` [compound 17, 1-{4-[3-(1H-Benzoimidazol-2-ylmethyl)-3H-imidazo[4,5-b]pyridin-2-ylmethyl]-piperazin-1-yl}-2-phenyl-ethanone] were 20 nM and at least 100 µM. The like results for `CC(=O)N1CCN(Cc2nc3cccnc3n2Cc2nc3ccccc3[nH]2)CC1` [compound 18, 1-{4-[3-(1H-Benzoimidazol-2-ylmethyl)-3H-imidazo[4,5-b]pyridin-2-ylmethyl]-piperazin-1-yl}-ethanone] were, in that order, 4 nM and at least 100 µM. In turn, `Cn1cnc(S(=O)(=O)N2CCN(Cc3nc4cccnc4n3Cc3nc4ccccc4[nH]3)CC2)c1` [compound 19, 3-(1H-Benzoimidazol-2-ylmethyl)-2-[4-(1-methyl-1H-imidazole-4-sulfonyl)-piperazin-1-ylmethyl]-3H-imidazo[4,5-b]pyridine] had a CC50 at 48 h in data set [2] of at least 100 µM. With `O=C(Nc1ccc2c(c1)OCCCO2)N1CCN(Cc2nc3cccnc3n2Cc2nc3ccccc3[nH]2)CC1` [compound 20, 4-[3-(1H-Benzoimidazol-2-ylmethyl)-3H-imidazo[4,5-b]pyridin-2-ylmethyl]-piperazine-1-carboxylic acid (3,4-dihydro-2H-benzo[b][1,4]dioxepin-7-yl)-amide], in data set [1] (setting [4]), the IC50 was determined as 5 nM. The compound further returned a CC50 at 48 h in data set [2] of at least 100 µM. The like results for `O=C(c1ccco1)N1CCN(Cc2nc3cccnc3n2Cc2nc3ccccc3[nH]2)CC1` [compound 21, {4-[3-(1H-Benzoimidazol-2-ylmethyl)-3H-imidazo[4,5-b]pyridin-2-ylmethyl]-piperazin-1-yl}-furan-2-yl-methanone] were, in that order, 13 nM and at least 100 µM. As to `OCC1CCCN1Cc1nc2cccnc2n1Cc1nc2ccccc2[nH]1` (stereo not shown) [compound 22, {1-[3-(1H-Benzoimidazol-2-ylmethyl)-3H-imidazo[4,5-b]pyridin-2-ylmethyl]-pyrrolidin-2-yl}-methanol], the IC50 in data set [1] (setting [4]) amounted to 2 nM. Besides, in data set [2], the CC50 at 48 h was at least 100 µM.

For `OCCC1CCCCN1Cc1nc2cccnc2n1Cc1nc2ccccc2[nH]1` (stereo not shown) [compound 23, 2-{1-[3-(1H-Benzoimidazol-2-ylmethyl)-3H-imidazo[4,5-b]pyridin-2-ylmethyl]-piperidin-2-yl}-ethanol], the IC50 in data set [1] (setting [4]) turned out to be 10 nM. This compound gave a CC50 at 48 h in data set [2] of at least 100 µM. For `c1ccc2c(c1)CN(Cc1nc3cccnc3n1Cc1nc3ccccc3[nH]1)C2` [compound 27, 3-(1H-Benzoimidazol-2-ylmethyl)-2-(1,3-dihydro-isoindol-2-ylmethyl)-3H-imidazo[4,5-b]pyridine], the IC50 in data set [1] (setting [4]) came to 20 nM. Further, the CC50 at 48 h in data set [2] was at least 100 µM.

The term IC50 denotes the midpoint of a concentration-inhibition curve. A word on the CC50: it is the concentration giving 50% cytotoxicity.
